Data: ChEMBL document CHEMBL6121057, “Discovery of an Orally Bioavailable STING Inhibitor with In Vivo Anti-Inflammatory Activity in Mice with STING-Mediated Inflammation” (J Med Chem, 2025)
Activity calls are given as the source filed them. The calls are words filed in the database; no cut-off is given here.

Experiments:
[1] = Acute toxicity in male C57BL/6JNifdc mouse assessed as change in spleen weight at 500 mg/kg, po administered everyday for 14 days; format: organism-based; settings: in vivo, 336 h, time 14 day
[2] = biological target: T1, Stimulator of interferon genes protein (Mus musculus) (UniProt Q3TBT3); test: Inhibition of STING in mouse L929 cells assessed as decrease in ISG15 mRNA level preincubated for 1 hr followed by 2',3'-cGAMP stimulation for 6 hrs by real-time PCR analysis; format: cell-based; settings: dose 0.1-1 µM, time 7.0 hrs
T1 sequence (whole entry): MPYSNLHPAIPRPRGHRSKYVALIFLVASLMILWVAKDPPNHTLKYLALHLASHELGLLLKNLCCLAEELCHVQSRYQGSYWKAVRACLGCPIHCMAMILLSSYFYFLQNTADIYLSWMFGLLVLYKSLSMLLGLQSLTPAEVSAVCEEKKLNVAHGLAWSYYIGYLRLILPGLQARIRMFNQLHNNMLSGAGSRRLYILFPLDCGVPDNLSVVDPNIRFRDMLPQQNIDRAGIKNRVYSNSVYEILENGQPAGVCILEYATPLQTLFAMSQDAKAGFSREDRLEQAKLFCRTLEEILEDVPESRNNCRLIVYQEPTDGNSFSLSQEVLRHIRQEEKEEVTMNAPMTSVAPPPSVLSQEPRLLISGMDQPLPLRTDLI

[3] = Oral bioavailability in Sprague-Dawley rat at 10 mg/kg measured […] by LC-MS/MS analysis; format: ADME, organism-based; settings: in vivo
[4] = biological target: T1, Stimulator of interferon genes protein (Mus musculus); test: In vivo inhibition of STING activation in Trex1-KO mouse assessed as decrease in Isg15 mRNA level in heart at 10 mg/kg, po qd treated for 2 weeks by quantitative PCR analysis; format: functional, organism-based
[5] = biological target: Stimulator of interferon genes protein (Homo sapiens) (UniProt Q86WV6); test: Inhibition of STING in human THP-1 cells assessed as decrease in p-p65 level at 0.1 to 1 uM preincubated for 1 hr followed by 2',3'-cGAMP stimulation for 3 hrs by Western blot analysis; format: cell-based; settings: dose 0.1-1 µM, time 4.0 hrs
[6] = biological target: T1, Stimulator of interferon genes protein (Mus musculus); test: In vivo inhibition of STING activation in Trex1-KO mouse assessed as decrease in serum IFN-beta level at 10 mg/kg, po qd treated for 2 weeks by ELISA; format: functional, organism-based
[7] = AUC (0 to t) in Sprague-Dawley rat at 2 mg/kg, iv measured upto 60 mins by LC-MS/MS analysis; format: ADME, organism-based; settings: in vivo
[8] = biological target: T1, Stimulator of interferon genes protein (Mus musculus); test: In vivo inhibition of STING activation in Trex1-KO mouse assessed as decrease in Ifit3 mRNA level in muscle at 10 mg/kg, po qd treated for 2 weeks by quantitative PCR analysis; format: functional, organism-based
[9] = Tmax in Sprague-Dawley rat at 10 mg/kg, po measured […] by LC-MS/MS analysis; format: ADME, organism-based; settings: in vivo
[10] = AUC (0 to t) in Sprague-Dawley rat at 10 mg/kg, po measured upto 60 mins by LC-MS/MS analysis; format: ADME, organism-based; settings: in vivo
[11] = biological target: T1, Stimulator of interferon genes protein (Mus musculus); test: In vivo inhibition of STING activation in Trex1-KO mouse assessed as decrease in Isg15 mRNA level in tongue at 10 mg/kg, po qd treated for 2 weeks by quantitative PCR analysis; format: functional, organism-based
[12] = Acute toxicity in C57BL/6JNifdc mouse assessed as body weight change at 500 mg/kg, po administered everyday for 14 days; format: organism-based; settings: in vivo, 336 h, time 14 day
[13] = biological target: T1, Stimulator of interferon genes protein (Mus musculus); test: In vivo inhibition of STING activation in Trex1-KO mouse assessed as decrease in Cxcl10 mRNA level in muscle at 10 mg/kg, po qd treated for 2 weeks by quantitative PCR analysis; format: functional, organism-based
[14] = biological target: T1, Stimulator of interferon genes protein (Mus musculus); test: In vivo inhibition of STING activation in Trex1-KO mouse assessed as decrease in Irf7 mRNA level in tongue at 10 mg/kg, po qd treated for 2 weeks by quantitative PCR analysis; format: functional, organism-based
[15] = biological target: T1, Stimulator of interferon genes protein (Mus musculus); test: Inhibition of STING in mouse L929 cells assessed as decrease in pIRF3 level at 0.1 to 1 uM preincubated for 1 hr followed by 2',3'-cGAMP stimulation for 6 hrs by Western blot analysis; format: cell-based; settings: dose 0.1-1 µM, time 7.0 hrs
[16] = biological target: T1, Stimulator of interferon genes protein (Mus musculus); test: Inhibition of STING in mouse L929 cells assessed as decrease in p-p65 level at 0.1 to 1 uM preincubated for 1 hr followed by 2',3'-cGAMP stimulation for 6 hrs by Western blot analysis; format: cell-based; settings: dose 0.1-1 µM, time 7.0 hrs
[17] = biological target: Stimulator of interferon genes protein (Homo sapiens) (UniProt Q86WV6); test: Inhibition of STING in human THP-1 cells assessed as decrease in CXCL10 mRNA level preincubated for 1 hr followed by 2',3'-cGAMP stimulation for 6 hrs by real-time PCR analysis; format: cell-based; settings: dose 0.1-1 µM, time 7.0 hrs
[18] = biological target: T1, Stimulator of interferon genes protein (Mus musculus); test: In vivo inhibition of STING activation in Trex1-KO mouse assessed as decrease in Isg15 mRNA level in muscle at 10 mg/kg, po qd treated for 2 weeks by quantitative PCR analysis; format: functional, organism-based
[19] = biological target: T1, Stimulator of interferon genes protein (Mus musculus); test: In vivo inhibition of CMA-induced STING activation in C57BL/6JNifdc mouse model assessed as decrease in serum IL-6 level administered orally pretreated for 2 hrs followed by CMA treatment for 4 hrs by ELISA; format: functional, organism-based; settings: dose 3-30 mg/kg, route po, time 6.0 hrs
[20] = Acute toxicity in C57BL/6JNifdc mouse assessed as behavioural abnormality at 2000 mg/kg, po administered as single dose measured for 14 days; format: organism-based; settings: in vivo, 336 h, time 14 day
[21] = biological target: Stimulator of interferon genes protein (Homo sapiens) (UniProt Q86WV6); test: Inhibition of STING in human THP-1 cells assessed as decrease in pTBK1 level at 0.1 to 1 uM preincubated for 1 hr followed by 2',3'-cGAMP stimulation for 3 hrs by Western blot analysis; format: cell-based; settings: dose 0.1-1 µM, time 4.0 hrs
[22] = biological target: T1, Stimulator of interferon genes protein (Mus musculus); test: In vivo inhibition of STING activation in Trex1-KO mouse assessed as decrease in Cxcl10 mRNA level in tongue at 10 mg/kg, po qd treated for 2 weeks by quantitative PCR analysis; format: functional, organism-based
[23] = biological target: T1, Stimulator of interferon genes protein (Mus musculus); test: In vivo inhibition of STING activation in Trex1-KO mouse assessed as decrease in Ccl2 mRNA level in heart at 10 mg/kg, po qd treated for 2 weeks by quantitative PCR analysis; format: functional, organism-based
[24] = Half life in Sprague-Dawley rat at 2 mg/kg, iv measured upto 60 mins by LC-MS/MS analysis; format: ADME, organism-based; settings: in vivo
[25] = Acute toxicity in C57BL/6JNifdc mouse assessed as animal death at 2000 mg/kg, po administered as single dose measured for 14 days; format: organism-based; settings: in vivo, 336 h, time 14 day
[26] = biological target: Stimulator of interferon genes protein (Homo sapiens) (UniProt Q86WV6); test: Inhibition of STING in human THP-1 cells assessed as decrease in IFNB mRNA level preincubated for 1 hr followed by 2',3'-cGAMP stimulation for 6 hrs by real-time PCR analysis; format: cell-based; settings: dose 0.1-1 µM, time 7.0 hrs

Chain of Stimulator of interferon genes protein (Homo sapiens) (Q86WV6 whole entry): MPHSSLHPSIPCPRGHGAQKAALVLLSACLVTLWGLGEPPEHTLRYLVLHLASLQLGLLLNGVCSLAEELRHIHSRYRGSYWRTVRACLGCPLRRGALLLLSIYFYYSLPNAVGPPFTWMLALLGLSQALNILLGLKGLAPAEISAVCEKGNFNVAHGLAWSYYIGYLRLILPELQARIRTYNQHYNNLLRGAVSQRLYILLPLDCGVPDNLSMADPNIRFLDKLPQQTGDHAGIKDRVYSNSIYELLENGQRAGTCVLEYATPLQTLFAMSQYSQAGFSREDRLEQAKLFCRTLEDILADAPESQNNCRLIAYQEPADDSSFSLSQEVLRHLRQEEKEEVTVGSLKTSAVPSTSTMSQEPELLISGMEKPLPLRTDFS

SMILES: O=C(Nc1ccc(C2CCC(F)(F)CC2)cc1)Nc1c[nH]c2ccc(Cl)cc12
- Activity [1]: Toxic
- inhibition [2]: Dose-dependent-effect
- bioavailability [3]: 15%
- inhibition [4]: Active
- inhibition [5]: Active
- inhibition [6]: Active
- AUC(0-t) at 1 h [7]: 1360 ng·h/mL
- inhibition [8]: Active
- Tmax [9]: 1 h
- AUC(0-t) at 1 h [10]: 1020 ng·h/mL
- inhibition [11]: Active
- Activity [12]: Non-toxic
- inhibition [13]: Active
- inhibition [14]: Active
- inhibition [15]: Active
- inhibition [16]: Active
- inhibition [17]: Dose-dependent-effect
- inhibition [18]: Active
- inhibition [19]: Dose-dependent-effect
- Activity [20]: Non-toxic
- inhibition [21]: Active
- inhibition [22]: Active
- inhibition [23]: Active
- half-life [24]: 5.3 h
- Activity [25]: Non-toxic
- inhibition [26]: Dose-dependent-effect
